Assay results: patent US20230212549A1, “COMPOUNDS COMPRISING A […] LIGAND AND USE THEREOF” (priority 2021, published 2023)
Numbered stars: 1 amine (or outer) side, 2 acyl side, 3 side chain; on linkers, the order of the positions; unused ones are H or OH. Bridge positions count the residues as written; N and C are the ends. Square brackets hold non-standard residues; d marks the D form. Peptide text beside a SMILES is read from it. * marks the point of attachment. ξ: configuration not given here. X6 = NCCNCC(CNCCN)C(=O)NCCOCCOCCOCCOCCOCCOCCC(=O)NCCCOCCOCCOCCCN*; X1 = NCCNCC(CNCCN)C(=O)N1CCN(CC(=O)NCCCOCCOCCOCCCN*)CC1; Pyridine(3,5-bisCH2) = c1ncc(C[*:2])cc1C[*:1]; mXylylene = c1cc(C[*:1])cc(C[*:2])c1; PEG6 = NCCOCCOCCOCCOCCOCCOCCC(=O)O; Suc = O=C(CCC(=O)[*:2])[*:1]; Nle = CCCC[C@H](N)C(=O)O; X2 = NCCNCC(CNCCN)C(=O)*; ξC = NC(CS)C(=O)O

Tests used:
[1] = biological target: T1, FAP-expressing human WI-38 fibroblasts (Homo sapiens, UniProt Q12884); experiment: Competitive FACS binding assay
T1 construct: FAP-expressing human WI-38 fibroblasts (ECACC) were cultured in EMEM; host or cells: WI-38 human fibroblasts
T1 sequence (Q12884 whole entry): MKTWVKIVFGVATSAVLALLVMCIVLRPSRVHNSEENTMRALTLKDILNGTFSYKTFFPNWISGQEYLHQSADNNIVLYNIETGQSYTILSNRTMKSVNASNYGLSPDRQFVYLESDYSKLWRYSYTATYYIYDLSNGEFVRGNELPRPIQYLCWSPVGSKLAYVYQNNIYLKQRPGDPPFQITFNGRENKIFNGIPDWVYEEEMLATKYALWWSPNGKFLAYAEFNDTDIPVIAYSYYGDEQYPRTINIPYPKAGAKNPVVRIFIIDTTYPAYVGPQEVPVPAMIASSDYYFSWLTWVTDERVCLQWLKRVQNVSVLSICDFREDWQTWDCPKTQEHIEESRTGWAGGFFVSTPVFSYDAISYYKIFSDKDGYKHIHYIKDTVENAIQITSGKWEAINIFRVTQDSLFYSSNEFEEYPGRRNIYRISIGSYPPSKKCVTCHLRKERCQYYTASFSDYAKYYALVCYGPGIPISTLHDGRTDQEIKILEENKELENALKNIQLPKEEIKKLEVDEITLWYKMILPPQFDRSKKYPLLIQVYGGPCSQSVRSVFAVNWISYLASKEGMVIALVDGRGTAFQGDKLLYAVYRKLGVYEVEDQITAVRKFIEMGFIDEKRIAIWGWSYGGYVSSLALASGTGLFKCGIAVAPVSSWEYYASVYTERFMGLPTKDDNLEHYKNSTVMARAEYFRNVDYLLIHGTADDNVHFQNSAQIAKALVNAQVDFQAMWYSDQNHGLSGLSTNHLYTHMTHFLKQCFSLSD
Description: Cells were analyzed in an Attune NxT flow cytometer. […] […].
Cells were analyzed in an Attune NxT flow cytometer. […]

in vivo = details: swiss nude, mouse, iv
Human recombinant FAP [2] = biological target: T2, Human recombinant FAP (Homo sapiens, UniProt Q12884); experiment: Surface plasmon resonance (Biacore) assay; format: binding
T2 sequence (Q12884 whole entry): as above

[3] = Radiochemical purity by HPLC of ^99mTc-labeled compounds; format: physicochemical; details: 99Tc-labeled compounds
Description: 100-500 MBq of ^99mTcO4 (in saline) were mixed with 11 μl of 0.5 M phosphate buffer pH 11.5-12.0 and 1.1 μl of 0.1 M trisodium citrate per 100 μl radionuclide solution. […] The mixture was incubated for 30 min at 25-50′° C. At the end of the incubation time, the mixture was neutralized with 3.0 μl 1 M HCl per 10 μl phosphate buffer and TWEEN-20 was added at a final concentration of 0.100.

Human recombinant FAP [4] = biological target: T2, Human recombinant FAP; experiment: FRET-based FAP protease activity assay; format: biochemical; design: purchased R&D systems 3715-SE
[5] = pIC50 Category (activity), Recombinant human FAP

| Structure (SMILES) | IC50 [1] | tissue uptake at 1 h (in vivo; blood pool surrogate (BPS)) | tissue uptake at 3 h (in vivo; blood pool surrogate (BPS)) | tissue uptake at 6 h (in vivo; blood pool surrogate (BPS)) | tissue uptake at 1 h (in vivo; kidneys) | tissue uptake at 3 h (in vivo; kidneys) | tissue uptake at 6 h (in vivo; kidneys) | tissue uptake at 1 h (in vivo; tumor) | tissue uptake at 3 h (in vivo; tumor) | tissue uptake at 6 h (in vivo; tumor) | Kd (Human recombinant FAP [2]) | HPLC Area % appr. 4 h post end of synthesis [3] | HPLC Area % at end of synthesis [3] | IC50 (Human recombinant FAP [4]; [5]) | HPLC Area % appr. 4 h post end of synthesis ([3]; (3 h)) | IC50 (Human recombinant FAP [4]; pIC50 Category (Activity), FRET-peptide substrate, 37° C.) |
| --- | --- | --- | --- | --- | --- | --- | --- | --- | --- | --- | --- | --- | --- | --- | --- | --- |
| CCCC[C@H](NC(=O)CCC(=O)NCCCOCCOCCOCCCNC(=O)CN1CCN(C(=O)C(CNCCN)CNCCN)CC1)C(=O)N[C@H]1CSCc2cncc(c2)CSCC(C(=O)O)NC(=O)[C@H](Cc2ccccc2)NC(=O)[C@H](CCC(=O)O)NC(=O)[C@H]([C@@H](C)O)NC(=O)[C@@H]2CCCN2C(=O)[C@@H]2CCCN2C1=O (stereo partly drawn) [3BP-4775, N4Ac-PPAc-Ttds-Nle-[Cys(3Lut)-Pro-Pro-Thr-Glu-Phe-Cys]-OH] ({X1-Suc}-[Nle]CPPTEF[ξC]-OH; linker 2-8 via Pyridine(3,5-bisCH2)) | 0.01 to 0.0794 µM | 0.21 %ID/g | 0.18 %ID/g | 0.04 %ID/g | 8.98 %ID/g | 6.31 %ID/g | 4.28 %ID/g | 7.88 %ID/g | 6.28 %ID/g | 4.55 %ID/g | 0.01 to 0.0794 µM | 88.1% | 86.4% | 0.01 to 0.0794 µM | – | – |
| CCCC[C@H](NC(=O)CCOCCOCCOCCOCCOCCOCCNC(=O)C(CNCCN)CNCCN)C(=O)N[C@H]1CSCc2cncc(c2)CSCC(C(=O)O)NC(=O)[C@H](Cc2ccccc2)NC(=O)[C@H](CCC(=O)O)NC(=O)[C@H]([C@@H](C)O)NC(=O)[C@@H]2CCCN2C(=O)[C@@H]2CCCN2C1=O (stereo partly drawn) [3BP-4773, N4Ac-PEG6-Nle-[Cys(3Lut)-Pro-Pro-Thr-Glu-Phe-Cys]-OH] ({X2-PEG6}-[Nle]CPPTEF[ξC]-OH; linker 2-8 via Pyridine(3,5-bisCH2)) | 0.01 to 0.0794 µM | 0.25 %ID/g | 0.09 %ID/g | 0.06 %ID/g | 6.64 %ID/g | 4.71 %ID/g | 3.12 %ID/g | 6.19 %ID/g | 6.19 %ID/g | 5.42 %ID/g | 0.01 to 0.0794 µM | – | 95.8% | 0.01 to 0.0794 µM | – | – |
| CCCCNC(=O)N[C@H]1CSCc2cc(cc(CN3CCN(C(=O)C(CNCCN)CNCCN)CC3)c2)CSC[C@@H](C(=O)O)NC(=O)[C@H](Cc2ccccc2)NC(=O)[C@H](CCC(N)=O)NC(=O)[C@H]([C@@H](C)O)NC(=O)[C@@H]2CCCN2C(=O)[C@@H]2CCCN2C1=O [3BP-4533, nBu-CAyl-[Cys(tMeBn(N4Ac-PP))-Pro-Pro-Thr-Gln-Phe-Cys]-OH] | < 0.01 µM | 1.72 %ID/g | 1.46 %ID/g | 0.86 %ID/g | 6.04 %ID/g | 4.43 %ID/g | 3.04 %ID/g | 5.45 %ID/g | 6.27 %ID/g | 6.75 %ID/g | – | – | 99.3% | – | 98.2% | < 0.01 µM |
| CCCC[C@H](NC(=O)CCC(=O)NCCCOCCOCCOCCCNC(=O)CCOCCOCCOCCOCCOCCOCCNC(=O)C(CNCCN)CNCCN)C(=O)N[C@H]1CSCc2cccc(c2)CSC[C@@H](C(=O)O)NC(=O)[C@H](Cc2ccccc2)NC(=O)[C@H](CCC(=O)O)NC(=O)[C@H]([C@@H](C)O)NC(=O)[C@@H]2CCCN2C(=O)[C@@H]2CCCN2C1=O [3BP-4780, N4Ac-PEG6-Ttds-Nle-[Cys(3MeBn)-Pro-Pro-Thr-Glu-Phe-Cys]-OH] ({X6-Suc}-[Nle]CPPTEFC-OH; linker 2-8 via mXylylene) | 0.01 to 0.0794 µM | 0.81 %ID/g | 0.61 %ID/g | 0.43 %ID/g | 8.11 %ID/g | 6.14 %ID/g | 4.36 %ID/g | 6.71 %ID/g | 7.01 %ID/g | 7.92 %ID/g | – | 92.3% | 95.0% | < 0.01 µM | – | – |
| CCCC[C@H](NC(=O)CCC(=O)NCCCOCCOCCOCCCNC(=O)CN1CCN(C(=O)C(CNCCN)CNCCN)CC1)C(=O)N[C@H]1CSCc2cccc(c2)CSC[C@@H](C(=O)NCCC(=O)O)NC(=O)[C@H](Cc2ccccc2)NC(=O)[C@H](CCC(N)=O)NC(=O)[C@H]([C@@H](C)O)NC(=O)[C@@H]2CCCN2C(=O)[C@@H]2CCCN2C1=O [3BP-4960, N4Ac-PPAc-Ttds-Nle-[Cys(3MeBn)-Pro-Pro-Thr-Gln-Phe-Cys]-Bal-OH] | < 0.01 µM | 0.74 %ID/g | 0.47 %ID/g | 0.17 %ID/g | 1.96 %ID/g | 1.21 %ID/g | 1.21 %ID/g | 10.5 %ID/g | 12.8 %ID/g | 12.1 %ID/g | < 0.01 µM | 92.3% | 95.2% | < 0.01 µM | – | – |
